According to PMC3227566, “Targeting Acetylcholinesterase: Identification of Chemical Leads by High Throughput Screening, Structure Determination and Molecular Modeling” (PLoS ONE, 2011):
Like-named read-outs stand apart in the source and are kept apart here.

Target: T1, recombinant hAChE (Homo sapiens, UniProt P22303)
T1 construct: made in house
Assay: biochemical
Description: A chemical library consisting of 17 500 substances was screened using the colorimetric Ellman assay and recombinant hAChE. The hydrolysis of acetylthiocholine iodide was monitored and the average slope of the positive controls was set to 100% activity. […] Molecules in Set 1 were selected to represent the chemical space according to a Principal Component Analysis (PCA) of the hits' structural and physicochemical features (see section Chemical space of AChE inhibitors, below).
The screening was performed at the Umeå Small Molecule Screening Facility currently incorporated in the screening platform of the Laboratories for Chemical Biology, Umeå (LCBU). Recombinant hAChE was expressed and purified according to previously described methods, [46]. The enzymatic activity was measured using the Ellman assay adapted to a 96-well format. The final assay volume was 200 µL and all measurements were performed in 0.2 mM 5,5′-Dithiobis(2-nitrobenzoic acid) and 1 mM acethylthiocholine iodide in 0.1 M phosphate buffer pH 8.0. […] Stock solutions were prepared in DMSO and transferred to the assay plate using a Biomek NC robotic system (BeckanCoulter). The enzymatic reaction was monitored for 120 seconds using an Infinite M200 plate-reader (Tekan) at a ligand concentration of 50 µM and temperature of 20°C. Each plate contained 80 samples, 14 positive controls and two negative controls. […] Substances reducing the activity by at least 70% were scored as hits. […] For each inhibitor, the enzymatic activity was determined at eight concentrations selected to produce a dose-response curve that was subsequently analyzed using Prism.

[1] = hits with determined crystal structures, mean ± standard deviation of 2–5 determinations, read-out: IC50

T1 sequence (P22303 32-614): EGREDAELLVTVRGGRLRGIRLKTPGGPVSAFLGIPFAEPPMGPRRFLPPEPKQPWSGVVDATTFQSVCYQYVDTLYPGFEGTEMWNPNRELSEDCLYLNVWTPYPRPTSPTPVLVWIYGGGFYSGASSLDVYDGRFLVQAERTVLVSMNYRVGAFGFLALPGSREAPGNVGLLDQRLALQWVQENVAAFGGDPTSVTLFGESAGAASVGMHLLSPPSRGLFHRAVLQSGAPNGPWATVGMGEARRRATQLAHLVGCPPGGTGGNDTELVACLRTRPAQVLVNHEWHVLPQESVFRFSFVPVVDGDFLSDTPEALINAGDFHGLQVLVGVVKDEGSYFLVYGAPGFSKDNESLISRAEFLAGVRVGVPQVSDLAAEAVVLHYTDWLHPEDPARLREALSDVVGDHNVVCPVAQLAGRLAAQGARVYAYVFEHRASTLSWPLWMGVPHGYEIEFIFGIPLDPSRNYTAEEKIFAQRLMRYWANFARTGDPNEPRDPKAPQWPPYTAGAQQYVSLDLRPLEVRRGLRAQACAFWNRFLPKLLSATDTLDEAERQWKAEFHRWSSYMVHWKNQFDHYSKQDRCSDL

## CCN1CCCC1CNC(=O)c1cc([N+](=O)[O-])c(N(C)C)cc1OC (centres unmarked) [Compound C5685]
  IC50: 1300 ± 100 nM

## CCN(CC)CCCNc1oc(-c2ccc(Cl)cc2)nc1C#N [Compound C7491]
[1]
  IC50: 21400 ± 1700 nM

## COC(=O)CSc1nc(C)c(C)c(C)c1C#N [Compound C5231]
[1]
  IC50: 36000 ± 6300 nM

## COc1ccc(C(=O)NC(=S)Nc2ccc(N3CCN(C)CC3)cc2)cc1[N+](=O)[O-] [Compound C7643]
[1]
  IC50: 540 ± 30 nM

## CCN(CC)CCCNc1c([N+](=O)[O-])c(=O)n(C)c2ccccc12 [Compound C6905]
[1]
  IC50: 2000 ± 100 nM
